system: MOLT-4 cells; experiment: Cell proliferation activity in MOLT-4 cells (72 h, cell viability luminescence); assay type: cell-based, human; settings: Homo sapiens, read-out: IC50 for the inhibition of MOLT-4 cell proliferation
Experimental: MOLT-4 cells are acute lymphoblastic leukemia cell lines in humans. The cells were purchased from ATCC. Culture conditions: RPMI-1640+10% FBS+1% penicillin-streptomycin solution. The cells were cultured in a 37° C., 5% CO2 incubator. The cells were plated in a 96-well plate, with 5×10^3 cells/well. After plating, compounds at different concentrations were added and cultured in a 37° C., 5% CO2 incubator for 72 h. After the completion of culture, a reagent (Promega, G7573) for detecting the cell viability was added. The mixture was uniformly mixed for 2 minutes and then incubated at room temperature for 10 minutes. The luminescence signal was detected with a multimode plate reader (BMG, PHERAstar FSX). The luminescence readings were processed using GraphPad Prism 8.0 software and the IC50 values of the compounds for the inhibition of cell proliferation and the maximum inhibition rate were calculated according to formula (2) and formula (3), respectively, wherein Tadministration denotes the cell signal readings obtained after incubation with the compounds for 72 h, and Tvehicle denotes the cell signal readings obtained after incubation with the vehicle control for 72 h.
Calculation of Max inhibition %: after the processing according to formula (2), the inhibition rate of the compounds at the highest concentration was calculated.

Row | SMILES | IC50 [nM]
1 | Cc1ncsc1-c1ccc([C@H](C)NC(=O)[C@@H]2C[C@@H](O)CN2C(=O)[C@@H](NC(=O)CCCCCC(=O)N2CC3CC2CN3CC[C@H](CSc2ccccc2)Nc2ccc(S(=O)(=O)NC(=O)c3ccc(N4CCN(CC5=C(c6ccc(Cl)cc6)CCC(C)(C)C5)CC4)cc3)cc2S(=O)(=O)C(F)(F)F)C(C)(C)C)cc1 (stereo partly drawn) [Compound 2, (2S,4R)-1-((2S)-2-(7-(5-((R)-3-((4-(N-(4-(4-((4′-chloro-4,4-dimethyl-3,4,5,6-tetrahydro-[1,1′-biphenyl]-2-yl)methyl)piperazin-1-yl)benzoyl)sulfamoyl)-2-((trifluoromethyl)sulfonyl)phenyl)amino)-4-(phenylthio)butyl)-2,5-diazabicyclo[2.2.1]heptan-2-yl)-7-oxoheptanamido)-3,3-dimethylbutanoyl)-4-hydroxy-N—((S)-1-(4-(4-methylthiazol-5-yl)phenyl)ethyl)pyrrolidine-2-carboxamide] | < 500
2 | Cc1ncsc1-c1ccc([C@H](C)NC(=O)[C@@H]2C[C@@H](O)CN2C(=O)[C@@H](NC(=O)CCCCCC(=O)N2CCN(CC[C@H](CSc3ccccc3)Nc3ccc(S(=O)(=O)NC(=O)c4ccc(N5CCN(CC6=C(c7ccc(Cl)cc7)CCOC6)CC5)cc4)cc3S(=O)(=O)C(F)(F)F)CC2)C(C)(C)C)cc1 [Compound 5, (2S,4R)-1-((S)-2-(7-(4-((R)-3-((4-(N-(4-(4-((4-(4-chlorophenyl)-5,6-dihydro-2H-pyran-3-yl)methyl)piperazin-1-yl)benzoyl)sulfamoyl)-2-((trifluoromethyl)sulfonyl)phenyl)amino)-4-(phenylthio)butyl)piperazin-1-yl)-7-oxoheptanamido)-3,3-dimethylbutanoyl)-4-hydroxy-N—((S)-1-(4-(4-methylthiazol-5-yl)phenyl)ethyl)pyrrolidine-2-carboxamide] | < 500
3 | Cc1ncsc1-c1ccc([C@H](C)NC(=O)[C@@H]2C[C@@H](O)CN2C(=O)[C@@H](NC(=O)CCCCCC(=O)N2CCN(CC[C@H](CSc3ccccc3)Nc3ccc(S(=O)(=O)NC(=O)c4ccc(N5CCN(CC6=C(c7ccc(Cl)cc7)CCC(C)(C)C6)CC5)nc4)cc3S(=O)(=O)C(F)(F)F)CC2)C(C)(C)C)cc1 [Compound 7, 6-(4-((4′-chloro-4,4-dimethyl-3,4,5,6-tetrahydro-[1,1′-biphenyl]-2-yl)methyl)piperazin-1-yl)-N-((4-(((R)-4-(4-(7-(((S)-1-((2S,4R)-4-hydroxy-2-(((S)-1-(4-(4-methylthiazol-5-yl)phenyl)ethyl)carbamoyl)pyrrolidin-1-yl)-3,3-dimethyl-1-oxobutan-2-yl)amino)-7-oxoheptanoyl)piperazin-1-yl)-1-(phenylthio)butan-2-yl)amino)-3-((trifluoromethyl)sulfonyl)phenyl)sulfonyl)nicotinamide] | < 500
4 | Cc1ncsc1-c1ccc([C@H](C)NC(=O)[C@@H]2C[C@@H](O)CN2C(=O)[C@@H](NC(=O)CCCCCC(=O)N2CCN(CC[C@H](CSc3ccccc3)Nc3ccc(S(=O)(=O)NC(=O)c4ccc(N5CCN(CC6=C(c7ccc(Cl)cc7F)CCC(C)(C)C6)CC5)cc4)cc3S(=O)(=O)C(F)(F)F)CC2)C(C)(C)C)cc1 [Compound 12, (2S,4R)-1-((S)-2-(7-(4-((R)-3-((4-(N-(4-(4-((4′-chloro-2′-fluoro-4,4-dimethyl-3,4,5,6-tetrahydro-[1,1′-biphenyl]-2-yl)methyl)piperazin-1-yl)benzoyl)sulfamoyl)-2-((trifluoromethyl)sulfonyl)phenyl)amino)-4-(phenylthio)butyl)piperazin-1-yl)-7-oxoheptanamido)-3,3-dimethylbutanoyl)-4-hydroxy-N—((S)-1-(4-(4-methylthiazol-5-yl)phenyl)ethyl)pyrrolidine-2-carboxamide] | < 500
5 | Cc1ncsc1-c1ccc([C@H](C)NC(=O)[C@@H]2C[C@@H](O)CN2C(=O)[C@@H](NC(=O)CCCCCC(=O)N2C[C@@H]3C[C@H]2CN3CC[C@H](CSc2ccccc2)Nc2ccc(S(=O)(=O)NC(=O)c3ccc(N4CCN(CC5=C(c6ccc(Cl)cc6)CCC(C)(C)C5)CC4)cc3)cc2S(=O)(=O)C(F)(F)F)C(C)(C)C)cc1 [Compound 13, (2S,4R)-1-((S)-2-(7-((1S,4S)-5-((R)-3-((4-(N-(4-(4-((4′-chloro-4,4-dimethyl-3,4,5,6-tetrahydro-[1,1′-biphenyl]-2-yl)methyl)piperazin-1-yl)benzoyl)sulfamoyl)-2-((trifluoromethyl)sulfonyl)phenyl)amino)-4-(phenylthio)butyl)-2,5-diazabicyclo[2.2.1]heptan-2-yl)-7-oxoheptanamido)-3,3-dimethylbutanoyl)-4-hydroxy-N—((S)-1-(4-(4-methylthiazol-5-yl)phenyl)ethyl)pyrrolidine-2-carboxamide] | < 500
6 | Cc1ncsc1-c1ccc([C@H](C)NC(=O)[C@@H]2C[C@@H](O)CN2C(=O)[C@@H](NC(=O)CCCCCCCC(=O)N2C[C@H]3CN(CC[C@H](CSc4ccccc4)Nc4ccc(S(=O)(=O)NC(=O)c5ccc(N6CCN(CC7=C(c8ccc(Cl)cc8)CCC(C)(C)C7)CC6)cc5)cc4S(=O)(=O)C(F)(F)F)C[C@H]3C2)C(C)(C)C)cc1 [Compound 16, cis-(2S,4R)-1-((S)-2-(9-(5-((R)-3-((4-(N-(4-(4-((4′-chloro-4,4-dimethyl-3,4,5,6-tetrahydro-[1,1′-biphenyl]-2-yl)methyl)piperazin-1-yl)benzoyl)sulfamoyl)-2-((trifluoromethyl)sulfonyl)phenyl)amino)-4-(phenylthio)butyl)hexahydropyrrolo[3,4-c]pyrrol-2(1H)-yl)-9-oxononanamido)-3,3-dimethylbutanoyl)-4-hydroxy-N—((S)-1-(4-(4-methylthiazol-5-yl)phenyl)ethyl)pyrrolidine-2-carboxamide] | < 500
7 | Cc1ncsc1-c1ccc([C@H](C)NC(=O)[C@@H]2C[C@@H](O)CN2C(=O)[C@@H](NC(=O)CCCCCCC(=O)N2C[C@H]3CN(CC[C@H](CSc4ccccc4)Nc4ccc(S(=O)(=O)NC(=O)c5ccc(N6CCN(CC7=C(c8ccc(Cl)cc8)CCC(C)(C)C7)CC6)cc5)cc4S(=O)(=O)C(F)(F)F)C[C@H]3C2)C(C)(C)C)cc1 [Compound 17, cis-(2S,4R)-1-((S)-2-(8-(5-((R)-3-((4-(N-(4-(4-((4′-chloro-4,4-dimethyl-3,4,5,6-tetrahydro-[1,1′-biphenyl]-2-yl)methyl)piperazin-1-yl)benzoyl)sulfamoyl)-2-((trifluoromethyl)sulfonyl)phenyl)amino)-4-(phenylthio)butyl)hexahydropyrrolo[3,4-c]pyrrol-2(1H)-yl)-8-oxooctanamido)-3,3-dimethylbutanoyl)-4-hydroxy-N—((S)-1-(4-(4-methylthiazol-5-yl)phenyl)ethyl)pyrrolidine-2-carboxamide] | < 500
8 | Cc1ncsc1-c1ccc([C@H](C)NC(=O)[C@@H]2C[C@@H](O)CN2C(=O)[C@@H](NC(=O)CCCCCC(=O)N2C[C@H]3CN(CC[C@H](CSc4ccccc4)Nc4ccc(S(=O)(=O)NC(=O)c5ccc(N6CCN(CC7=C(c8ccc(Cl)cc8)CCC8(CC8)C7)CC6)cc5)cc4S(=O)(=O)C(F)(F)F)C[C@H]3C2)C(C)(C)C)cc1 [Compound 18, cis-(2S,4R)-1-((S)-2-(7-(5-((R)-3-((4-(N-(4-(4-((6-(4-chlorophenyl)spiro[2.5]oct-5-en-5-yl)methyl)piperazin-1-yl)benzoyl)sulfamoyl)-2-((trifluoromethyl)sulfonyl)phenyl)amino)-4-(phenylthio)butyl)hexahydropyrrolo[3,4-c]pyrrol-2(1H)-yl)-7-oxoheptanamido)-3,3-dimethylbutanoyl)-4-hydroxy-N—((S)-1-(4-(4-methylthiazol-5-yl)phenyl)ethyl)pyrrolidine-2-carboxamide] | < 500
9 | Cc1ncsc1-c1ccc([C@H](C)NC(=O)[C@@H]2C[C@@H](O)CN2C(=O)[C@@H](NC(=O)CCCCCC(=O)N2C[C@@H]3C[C@H]2CN3CC[C@H](CSc2ccccc2)Nc2ccc(S(=O)(=O)NC(=O)c3ccc(N4CCN(CC5=C(c6ccc(Cl)cc6F)CCC(C)(C)C5)CC4)cc3)cc2S(=O)(=O)C(F)(F)F)C(C)(C)C)cc1 [Compound 20, (2S,4R)-1-((S)-2-(7-((1S,4S)-5-((R)-3-((4-(N-(4-(4-((4′-chloro-2′-fluoro-4,4-dimethyl-3,4,5,6-tetrahydro-[1,1′-biphenyl]-2-yl)methyl)piperazin-1-yl)benzoyl)sulfamoyl)-2-((trifluoromethyl)sulfonyl)phenyl)amino)-4-(phenylthio)butyl)-2,5-diazabicyclo[2.2.1]heptan-2-yl)-7-oxoheptanamido)-3,3-dimethylbutanoyl)-4-hydroxy-N—((S)-1-(4-(4-methylthiazol-5-yl)phenyl)ethyl)pyrrolidine-2-carboxamide] | < 500
10 | Cc1ncsc1-c1ccc([C@H](C)NC(=O)[C@@H]2C[C@@H](O)CN2C(=O)[C@@H](NC(=O)CCCCCCC(=O)N2C[C@H]3CN(CC[C@H](CSc4ccccc4)Nc4ccc(S(=O)(=O)NC(=O)c5ccc(N6CCN(CC7=C(c8ccc(Cl)cc8)CCC8(CC8)C7)CC6)cc5)cc4S(=O)(=O)C(F)(F)F)C[C@H]3C2)C(C)(C)C)cc1 [Compound 22, cis-(2S,4R)-1-((S)-2-(8-(5-((R)-3-((4-(N-(4-(4-((6-(4-chlorophenyl)spiro[2.5]oct-5-en-5-yl)methyl)piperazin-1-yl)benzoyl)sulfamoyl)-2-((trifluoromethyl)sulfonyl)phenyl)amino)-4-(phenylthio)butyl)hexahydropyrrolo[3,4-c]pyrrol-2(1H)-yl)-8-oxooctanamido)-3,3-dimethylbutanoyl)-4-hydroxy-N—((S)-1-(4-(4-methylthiazol-5-yl)phenyl)ethyl)pyrrolidine-2-carboxamide] | < 500

Reference: patent US20240408085A1, “COMPOUND FOR DEGRADATION OF BCL-2 FAMILY PROTEINS AND MEDICAL APPLICATION THEREOF” (XIZANG HAISCO PHARMACEUTICAL CO., LTD., priority 2021, published 2024)
